Assay results as given in EP3820512B1, “IMMUNOMODULATING COMPOSITIONS COMPRISING OLIGOSACCHARIDE DERIVATIVES” (priority 2018, dated 2020).

Tests used:
[1] = biological target: TLR4 (Homo sapiens, UniProt O00206); test: TLR4 inhibitory and activating activity in THP-1 cells at low and high concentrations; assay type: cell-based; parameters: endogenous in cells; host or cells: THP-1 (human monocytic) cells; conditions: for % inhibition over control TLR4 / % activation over control TLR4: THP-1 cells; for TLR2/4 antagonist activity: as shown in Table-1 (FIG. 1), TLR2 and TLR4
TLR4, sequence (O00206 24-839): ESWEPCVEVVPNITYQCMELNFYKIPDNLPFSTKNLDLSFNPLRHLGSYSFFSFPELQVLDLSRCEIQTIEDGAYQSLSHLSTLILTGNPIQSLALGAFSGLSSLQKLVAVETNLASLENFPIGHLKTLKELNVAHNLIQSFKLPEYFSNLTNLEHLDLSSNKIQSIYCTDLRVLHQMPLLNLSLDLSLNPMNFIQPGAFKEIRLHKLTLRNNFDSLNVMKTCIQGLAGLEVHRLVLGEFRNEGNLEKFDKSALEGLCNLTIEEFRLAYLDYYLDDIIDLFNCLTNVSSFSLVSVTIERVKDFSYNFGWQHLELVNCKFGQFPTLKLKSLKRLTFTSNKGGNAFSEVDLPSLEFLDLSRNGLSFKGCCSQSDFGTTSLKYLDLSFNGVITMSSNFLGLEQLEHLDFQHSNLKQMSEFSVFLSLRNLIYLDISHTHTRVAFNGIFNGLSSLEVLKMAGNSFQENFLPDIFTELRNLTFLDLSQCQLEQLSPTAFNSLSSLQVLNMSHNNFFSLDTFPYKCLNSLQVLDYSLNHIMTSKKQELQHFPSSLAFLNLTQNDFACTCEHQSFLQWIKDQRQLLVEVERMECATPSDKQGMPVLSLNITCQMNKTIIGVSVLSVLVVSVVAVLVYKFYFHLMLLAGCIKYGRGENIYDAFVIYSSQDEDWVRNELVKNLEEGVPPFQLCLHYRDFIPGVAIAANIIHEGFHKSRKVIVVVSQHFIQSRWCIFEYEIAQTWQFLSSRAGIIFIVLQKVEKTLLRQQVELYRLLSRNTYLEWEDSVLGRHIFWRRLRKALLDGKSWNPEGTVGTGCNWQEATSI
TLR4, sequence (Q9Y6Y9 17-160 partner limits assumed): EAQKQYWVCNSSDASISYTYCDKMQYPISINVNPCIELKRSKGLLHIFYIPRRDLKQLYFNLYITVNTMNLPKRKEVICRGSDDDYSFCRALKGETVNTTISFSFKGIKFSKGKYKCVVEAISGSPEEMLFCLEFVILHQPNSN

[2] = system: THP-1 (human monocytic) cells; test: Cytokine response (IL-1β, TNF-α, IL-10) of THP-1 cells treated with compounds; assay type: cell-based; conditions: 100-200 µM
Description: When THP-1 (human monocytic) cells were treated with 100-200 µM of compounds 8, 14, 17, 23, 29, and 32, they produced an increased IL-1β and TNF-α response, decreased anti-inflammatory cytokine IL-10 (FIG. 4).

[3] = system: P. aeruginosa (ATCC-10145 GFP) infected skin wounds; test: Murine study of skin wound infection; assay type: in vivo, C57BL6 mice
Description: Five groups of C57BL/6 mice (8-10 weeks old, n = 4) were wounded on the dorsal surface. 25µl containing 10^6 CFU/mL P. aeruginosa in a PBS suspension were pipetted onto the wound and allowed to absorb for at least 3 min. […] Subsequently and for the next 13 days, infected wounds were treated each alternate day with colistin, or with test compounds.
Along with that less focal inflammation is observed in compound treated groups vs PA group.

[4] = system: VEGF induced tube formation in HUVECs; test: Anti-angiogenic activity, Tube Formation kit, VEGF induced; assay type: cell-based, human; conditions: VEGF 100ng/mL
Description: Selected TLR2/4 antagonist compounds 2, 6, 7, 8, 14, 17 and 32 were evaluated for anti-angiogenic activity using the Tube Formation kit (Cat#3470-096-K). VEGF (100ng/mL) was used as positive control. These compounds have potential applications in diseases associated with pathological angiogenesis such as solid tumor, […], diabetic retinopathy as well as AMD.

[5] = system: hPBMC; test: Cytotoxicity in hPBMC, MTT cell proliferation kit; assay type: cell-based, human; conditions: 0.1, 1.0, 10, 100 and 1000 µM, 24h
Description: The cells were treated with compounds and incubated for 24h. Cell viability was assessed using MTT cell proliferation kit (Promega).

[6] = system: HUVECs; test: Cytotoxicity in HUVECs, MTT cell proliferation kit; assay type: cell-based, human; conditions: 100 µM, 24h
Description: Selected TLR2/4 antagonist compounds 2, 6, 7, 8, 14, 17 and 32 were evaluated for cytotoxicity in HUVECs at 100 µM concentration. The cells were treated with compounds and incubated for 24h. Cell viability was assessed using MTT cell proliferation kit (Promega). All the compounds were not toxic to HUVECs (FIG. 15).

[7] = biological target: T1, TLR2 (Homo sapiens, UniProt O60603); test: TLR2 activity in PMA-stimulated THP-1 monocyte cells, ELISA of cell lysate; assay type: cell-based; conditions: THP-1 cells
T1 construct: endogenous in cells; host or cells: THP-1 monocyte cells stimulated with PMA
T1 sequence (O60603 21-784): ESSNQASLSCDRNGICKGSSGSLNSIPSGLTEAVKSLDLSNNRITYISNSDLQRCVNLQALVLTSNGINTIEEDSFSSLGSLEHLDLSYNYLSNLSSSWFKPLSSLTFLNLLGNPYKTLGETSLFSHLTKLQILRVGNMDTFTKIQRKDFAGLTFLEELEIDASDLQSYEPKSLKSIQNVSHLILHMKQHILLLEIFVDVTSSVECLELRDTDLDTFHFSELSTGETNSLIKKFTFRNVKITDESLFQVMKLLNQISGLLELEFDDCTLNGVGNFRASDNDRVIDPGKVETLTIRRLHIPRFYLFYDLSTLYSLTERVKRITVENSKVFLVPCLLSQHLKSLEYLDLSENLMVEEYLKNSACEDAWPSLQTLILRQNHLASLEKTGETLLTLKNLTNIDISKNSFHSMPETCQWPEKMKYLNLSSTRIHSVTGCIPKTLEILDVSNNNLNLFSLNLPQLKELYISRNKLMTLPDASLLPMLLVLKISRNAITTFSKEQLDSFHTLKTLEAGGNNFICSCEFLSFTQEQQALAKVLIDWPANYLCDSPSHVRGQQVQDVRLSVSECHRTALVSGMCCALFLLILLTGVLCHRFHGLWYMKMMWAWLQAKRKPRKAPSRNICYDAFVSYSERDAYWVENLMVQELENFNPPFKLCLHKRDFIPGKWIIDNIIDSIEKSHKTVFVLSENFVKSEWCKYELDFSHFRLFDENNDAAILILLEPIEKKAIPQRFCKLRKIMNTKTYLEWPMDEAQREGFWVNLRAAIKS
Description: THP-1 monocyte cells (1×10^5) were stimulated with 200nM of PMA for 48h and treated with different concentrations of test compounds. The TLR2 activity was measured after 24 h from the cell lysate using ELISA.

[8] = system: hyperoxia induced BPD in mouse pups; test: Hyperoxia-exposed BPD mouse model (newborn pups); assay type: in vivo
From the text: Neonatal mice and humans undergo similar stages of lung development but differ with respect to the duration of each stage and its temporal relationship to gestational age. The lungs of the mouse born at term are in the saccular stage and are surfactant sufficient; this can be considered somewhat akin to a human preterm neonate in the same stage of lung development that has been exposed to a full complement of antenatal steroids (which is known to enhance surfactant production). In terms of mimicking the human condition, the most successful hyperoxia models are those that limit exposure to hyperoxia to the saccular stage of pulmonary development. The mouse BPD model involves exposing newborn mice (postnatal day 1 or PN1) to 100% oxygen till PN4 followed by recovery in room air (RA) for another 10 days.
After the recovery period, their lungs were harvested and processed for quantitative PCR, western blotting, histopathology and ELISA.
After the recovery period, their lungs were harvested and processed for quantitative PCR, western blotting and histopathology and ELISA.
BPD is characterized by large simplified alveoli, inflammation, increased cell death, decreased cell proliferation, dysmorphic capillary configuration, and variable interstitial cellularity and/or fibroproliferation. […] This is determined by measuring the alveolar chord length, septal thickness and radial alveolar count (RAC). In BPD, the alveolar area increases which is characterized by increase in the diameter of the alveolar sacs, the septa become thickened (thus interfering in gaseous exchange) and the RAC, a parameter used to assess the complexity of terminal respiratory unit by pulmonologists, decreases as a result of arrested lung development.

Compound: CC(=O)NC1[C@H](Oc2ccc(N3CCN(C(C)=O)CC3)cc2)O[C@H](CO)[C@@H](O)[C@@H]1O (single isomer, unassigned) [Compound 28]
- % inhibition over control TLR4 ([1]; Concentration 1-10 µM): + (+ means that the % of inhibition or activation is in the range of 15-25%)
- % activation over control TLR4 ([1]; Concentration 75-100 µM): ++ (++ means that the % of inhibition or activation is in the range of 25-75%)

Compound: CC(=O)NC1[C@H](Oc2cccc3sc(NC(=O)C(C)(C)C)nc23)O[C@H](CO)[C@@H](O)[C@@H]1O (single isomer, unassigned) [Compound 23]
- IL-1β response [2]: increased
- TNF-α response [2]: increased
- anti-inflammatory cytokine IL-10 [2]: decreased
- % inhibition over control TLR4 ([1]; Concentration 1-10 µM): + (+ means that the % of inhibition or activation is in the range of 15-25%)
- % inhibition over control TLR4 ([1]; Concentration 75-100 µM): + (+ means that the % of inhibition or activation is in the range of 15-25%)

Compound: colistin [reference compound]
- Re-epithelialization and granulation tissue ([3]; H&E histology, day 13 post-injury, vs controls, p=0.050 (Colistin, compound 1), p=0.073 (compound 8)): significantly enhanced
- closure of P. aeruginosa infected skin wounds ([3]; topical, each alternate day, day 13, compounds 100µM / 100µg /ml, Colistin 4µg/ml): complete closure

Compound: CC(=O)N[C@H]1[C@H](Oc2ccc3c(C)cc(=O)oc3c2)O[C@H](COS(=O)(=O)O)[C@@H](O)[C@@H]1O [Compound 30]
- % activation over control TLR4 ([1]; Concentration 1-10 µM): + (+ means that the % of inhibition or activation is in the range of 15-25%)
- % inhibition over control TLR4 ([1]; Concentration 1-10 µM): + (+ means that the % of inhibition or activation is in the range of 15-25%)
- % activation over control TLR4 ([1]; Concentration 75-100 µM): + (+ means that the % of inhibition or activation is in the range of 15-25%)

Compound: CC(=O)N[C@H]1[C@H](Oc2ccc3nonc3c2)O[C@H](CO)[C@@H](O)[C@H]1O (stereo in doubt) [Compound 17, N-((2S,3R,4S,5S,6R)-2-(benzo[c][1,2,5]oxadiazol-5-yloxy)-4,5-dihydroxy-6-(hydroxymethyl)tetrahydro-2H-pyran-3-yl)acetamide]
- VEGF induced tube formation [4]: significantly decreased
- cytotoxicity in hPBMC (cell viability) [5]: not toxic
- cytotoxicity in HUVECs (cell viability) [6]: not toxic
- IL-1β response [2]: increased
- TNF-α response [2]: increased
- anti-inflammatory cytokine IL-10 [2]: decreased
- % inhibition over control TLR2 ([7]; Concentration 1-10 µM): ++ (++ means that the % of inhibition or activation is in the range of 25-75%)
- % inhibition over control TLR2 ([7]; Concentration 75-100 µM): +++ (+++ means that the % of inhibition or activation is in the range of 75-95%)
- % activation over control TLR4 ([1]; Concentration 75-100 µM): ++ (++ means that the % of inhibition or activation is in the range of 25-75%)

Compound: CC(=O)N[C@@H]1[C@@H](OC(C)=O)[C@H](OC(C)=O)[C@@H](COC(C)=O)O[C@H]1NC(=O)c1ccc(O[C@@H]2O[C@H](CO)[C@@H](O)[C@H](O)[C@H]2NC(C)=O)cc1 [Compound 2]
- VEGF induced tube formation [4]: significantly decreased
- cytotoxicity in hPBMC (cell viability) [5]: not toxic
- cytotoxicity in HUVECs (cell viability) [6]: not toxic
- % inhibition over control TLR2 ([7]; Concentration 1-10 µM): + (+ means that the % of inhibition or activation is in the range of 15-25%)
- % inhibition over control TLR2 ([7]; Concentration 75-100 µM): +++ (+++ means that the % of inhibition or activation is in the range of 75-95%)
- % inhibition over control TLR4 ([1]; Concentration 1-10 µM): ++ (++ means that the % of inhibition or activation is in the range of 25-75%)
- % inhibition over control TLR4 ([1]; Concentration 75-100 µM): +++ (+++ means that the % of inhibition or activation is in the range of 75-95%)
- TLR2/4 antagonist activity ([1]; summary in words): potent TLR2/4 antagonists

Compound: CC(=O)N[C@H]1[C@H](Oc2ccc(C(=O)Nc3ccc(O[C@@H]4O[C@H](COC(C)=O)[C@@H](OC(C)=O)[C@H](OC(C)=O)[C@H]4NC(C)=O)cc3)cc2)O[C@H](CO)[C@@H](O)[C@@H]1O [Compound 6]
- VEGF induced tube formation [4]: significantly decreased
- cytotoxicity in HUVECs (cell viability) [6]: not toxic
- % inhibition over control TLR4 ([1]; Concentration 1-10 µM): ++ (++ means that the % of inhibition or activation is in the range of 25-75%)
- % inhibition over control TLR4 ([1]; Concentration 75-100 µM): +++ (+++ means that the % of inhibition or activation is in the range of 75-95%)
- TLR2/4 antagonist activity ([1]; summary in words): potent TLR2/4 antagonists

Compound: CC(=O)N[C@H]1[C@H](Oc2ccc(C#N)cc2)O[C@H](CO)[C@@H](O)[C@@H]1O [Compound 14, p-Cyanophenyl 2-acetamido-2-deoxy-β-D-glucopyranoside]
- VEGF induced tube formation [4]: significantly decreased
- cytotoxicity in hPBMC (cell viability) [5]: not toxic
- cytotoxicity in HUVECs (cell viability) [6]: not toxic
- IL-1β response [2]: increased
- TNF-α response [2]: increased
- anti-inflammatory cytokine IL-10 [2]: decreased
- % inhibition over control TLR4 ([1]; Concentration 1 µM): +++ (+++ means that the % of inhibition or activation is in the range of 75-95%)
- % inhibition over control TLR4 ([1]; Concentration 100 µM): +++ (+++ means that the % of inhibition or activation is in the range of 75-95%)
- TLR2/4 antagonist activity ([1]; summary in words): potent TLR2/4 antagonists

Compound: CC(=O)N[C@H]1[C@H](Oc2ccc([N+](=O)[O-])cc2Cl)O[C@H](CO)[C@@H](O)[C@@H]1O [Compound 11]
- % inhibition over control TLR4 ([1]; Concentration 1-10 µM): + (+ means that the % of inhibition or activation is in the range of 15-25%)
- % inhibition over control TLR4 ([1]; Concentration 75-100 µM): + (+ means that the % of inhibition or activation is in the range of 15-25%)

Compound: CC(=O)NC1[C@H](Oc2ccc(B(O)O)cc2)O[C@H](CO)[C@@H](O)[C@@H]1O (single isomer, unassigned) [Compound 35, p-Boronic acid phenyl 2-acetamido-2-deoxy-β-D-glucopyranoside]
- % inhibition over control TLR4 ([1]; Concentration 1-10 µM): +++ (+++ means that the % of inhibition or activation is in the range of 75-95%)
- % activation over control TLR4 ([1]; Concentration 75-100 µM): ++ (++ means that the % of inhibition or activation is in the range of 25-75%)
- TLR4 modulatory activity ([1]; summary in words): concentration dependent TLR4 modulatory activity
- TLR2/4 antagonist activity ([1]; summary in words): potent TLR2/4 antagonists

Compound: CC(=O)N[C@H]1[C@H](Oc2ccc(NC(=O)c3ccc(O[C@@H]4O[C@H](CO)[C@@H](O)[C@H](O)[C@H]4NC(C)=O)cc3)cc2)O[C@H](CO)[C@@H](O)[C@@H]1O [Compound 7]
- VEGF induced tube formation [4]: significantly decreased
- cytotoxicity in hPBMC (cell viability) [5]: not toxic
- cytotoxicity in HUVECs (cell viability) [6]: not toxic
- % inhibition over control TLR2 ([7]; Concentration 1-10 µM): ++ (++ means that the % of inhibition or activation is in the range of 25-75%)
- % inhibition over control TLR2 ([7]; Concentration 75-100 µM): +++ (+++ means that the % of inhibition or activation is in the range of 75-95%)
- % inhibition over control TLR4 ([1]; Concentration 1-10 µM): +++ (+++ means that the % of inhibition or activation is in the range of 75-95%)
- % inhibition over control TLR4 ([1]; Concentration 75-100 µM): +++ (+++ means that the % of inhibition or activation is in the range of 75-95%)
- TLR2/4 antagonist activity ([1]; summary in words): potent TLR2/4 antagonists

Compound: CC(=O)N[C@@H]1[C@@H](O)[C@H](O)[C@@H](CO)O[C@H]1NC(=O)c1ccc(O[C@@H]2O[C@H](CO)[C@@H](O)[C@H](O)[C@H]2NC(C)=O)cc1 [Compound 3]
- TLR4 inhibition in vivo ([8]; neonatal pups with BPD): inhibit
- lung architecture ([8]; saline (IV) and nanosuspension (IN) formulation): restored
- % inhibition over control TLR2 ([7]; Concentration 1-10 µM): ++ (++ means that the % of inhibition or activation is in the range of 25-75%)
- % inhibition over control TLR2 ([7]; Concentration 75-100 µM): +++ (+++ means that the % of inhibition or activation is in the range of 75-95%)
- % inhibition over control TLR4 ([1]; Concentration 1-10 µM): ++ (++ means that the % of inhibition or activation is in the range of 25-75%)
- % inhibition over control TLR4 ([1]; Concentration 75-100 µM): +++ (+++ means that the % of inhibition or activation is in the range of 75-95%)
- TLR2/4 antagonist activity ([1]; summary in words): potent TLR2/4 antagonists

Compound: COc1ccc(O[C@@H]2O[C@H](CO)[C@@H](O)[C@H](O)[C@H]2NC(C)=O)cc1 [Compound 38]
- % inhibition over control TLR2 ([7]; Concentration 75-100 µM): ++ (++ means that the % of inhibition or activation is in the range of 25-75%)
